# Source: publication PMC11187126, “Structure and dynamics of the pyroglutamylated RF-amide peptide QRFP receptor GPR103” (Nature Communications, 2024)
# Where two headings read alike, the source gives them in different places. No end group written: not given here.
# Target: T1, GPR103 W286^6.48A (Homo sapiens, UniProt Q96P65, W286A)
# T1 construct: we used human full-length QRFPR-encoding plasmids; expressed in transfected cells; host or cells: HEK293 cells (HEK293A in the flow cytometry section), pCAGGS vector
# T1 sequence (Q96P65 1-431 W286A): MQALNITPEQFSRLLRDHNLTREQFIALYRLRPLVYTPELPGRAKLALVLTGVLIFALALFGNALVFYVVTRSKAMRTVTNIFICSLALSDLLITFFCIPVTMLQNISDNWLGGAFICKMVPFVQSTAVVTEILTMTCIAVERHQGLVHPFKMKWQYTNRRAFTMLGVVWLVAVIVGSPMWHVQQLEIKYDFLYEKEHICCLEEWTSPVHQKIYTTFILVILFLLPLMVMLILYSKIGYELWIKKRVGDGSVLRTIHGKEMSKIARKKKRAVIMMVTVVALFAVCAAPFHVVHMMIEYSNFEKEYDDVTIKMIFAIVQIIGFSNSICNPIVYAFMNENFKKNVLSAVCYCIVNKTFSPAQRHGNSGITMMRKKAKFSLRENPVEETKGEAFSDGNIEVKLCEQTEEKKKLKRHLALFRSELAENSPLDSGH
# Assay: TGFα shedding assay; Exp. level WT (1:20)
# Type: cell-based
substance,measurement,setting,value
TSGPLGNLAEELNGYSRKKGGFSFRF-NH2 [QRFP26],Emax,Exp. #1,72.87 % WT
same,Emax,Exp. #2,70.40 % WT
same,Emax,Exp. #3,78.23 % WT
same,Emax,"mean, read-out: Emax",73.8%
same,EC50,n = 3,1120 nM
same,Emax,"n = 3, read-out: Emax",75.7 ± 1.9%
